In data set [1] the test system is MM1.S. Description: Antiproliferative activity against dexamethasone-sensitive human MM.1S cells assessed as reduction in cell viability at 10 uM measured after 72 hrs by XTT assay. The class given is functional, cell-based.
For data set [2], the system named is RPMI-8226. Kind of data set: Antiproliferative activity against human RPMI 8226 cells assessed as reduction in cell viability measured after 72 hrs by XTT assay. The class given is functional, cell-based. As to conditions: RPMI-8226, 72 h.
The subject of data set [3] is MM.1R. Kind of data set: Antiproliferative activity against dexamethasone-resistant human MM.1R cells assessed as reduction in cell viability at 10 uM measured after 72 hrs by XTT assay. Format: functional, cell-based.
Data set [4] deals with B-cell. Description: Cytotoxicity against human B lymphocyte assessed as reduction in cell viability at 50 uM measured after 72 hrs by XTT assay. The class given is toxicity, cell-based.
Data set [5] in a line: Antiproliferative activity against dexamethasone-resistant human MM.1R cells assessed as reduction in cell viability measured after 72 hrs by XTT assay. The class given is functional, cell-based.
Data set [6] deals with MM1.S. Kind of data set: Antiproliferative activity against dexamethasone-sensitive human MM.1S cells assessed as reduction in cell viability measured after 72 hrs by XTT assay. The class given is functional, cell-based.
For data set [7], the system named is RPMI-8226. Kind of data set: Antiproliferative activity against human RPMI 8226 cells assessed as reduction in cell viability at 10 uM measured after 72 hrs by XTT assay. Format: functional, cell-based.

SMILES strings stand for the structures. Active and inactive are the calls of the source. No cut-off for these calls is given here. Some results are limits rather than exact numbers.

In the case of `CCCCCCCCCCCC(=O)O[C@H]1[C@H](O[C@@H]2[C@H]3OC(=O)CCCCCCCCC[C@H](CCCCC)O[C@@H]4O[C@H](C)[C@H](O)[C@H](O)[C@H]4O[C@H](O[C@H]2C)[C@@H]3O)O[C@@H](C)[C@H](O[C@@H]2O[C@@H](C)[C@H](OC(=O)[C@@H](C)CC)[C@@H](O)[C@H]2O)[C@H]1O[C@@H]1O[C@@H](C)[C@H](O)[C@@H](O)[C@H]1O` [PESCAPREIN III], the result in data set [1] and in data set [3] was inactive. Also, the IC50 in data set [2] is over 10 µM.
In the case of `CCCCCCCCCCCCCCCCOC(=O)/C=C/c1ccc(O)c(O)c1`, the Activity result in data set [4] is on record as “Non-Toxic”. For the same compound, the outcome in data set [1] and in data set [3] was inactive. For the same compound, the IC50 was over 10 µM in data set [5], 3 µM in data set [2] and over 10 µM in data set [6].
As for `CCCCCCCCCCCCCCCCCCOC(=O)/C=C/c1ccc(O)c(O)c1`, the Activity result in data set [4] is “Non-Toxic”. For the same compound, the outcome in data set [1] and in data set [3] was inactive. Further, the values for the IC50 in data set [5], in data set [2] and in data set [6] were over 10 µM, 9.4 µM and over 10 µM, respectively.
In the case of `CCCCCCCCCCCCCCCCCCOC(=O)/C=C/c1ccc(O)cc1`, the result in data set [1] and in data set [3] was inactive.
Take `C[C@H](CO)CC(=O)C[C@@H](C)CCC(=O)c1ccoc1`: the result in data set [1] and in data set [3] was inactive. In addition, in data set [2], the IC50 was over 10 µM.
As for `CCCCCCCCCCCCCCCCOC(=O)/C=C/c1ccc(O)cc1`, the outcome in data set [1] and in data set [3] was inactive.
For `CCCCCCCCCC(=O)O[C@H]1[C@H](O[C@@H]2[C@H]3OC(=O)CCCCCCCCC[C@H](CCCCC)O[C@@H]4O[C@H](C)[C@H](O)[C@H](O)[C@H]4O[C@H](O[C@H]2C)[C@@H]3O)O[C@@H](C)[C@H](O[C@@H]2O[C@@H](C)[C@H](OC(=O)[C@@H](C)CC)[C@@H](OC(=O)/C=C/c3ccccc3)[C@H]2O)[C@H]1O[C@@H]1O[C@@H](C)[C@H](O)[C@@H](O)[C@H]1O` [PESCAPREIN XXIII], the result in data set [1] and in data set [3] was inactive. For the same compound, the IC50 in data set [2] was over 10 µM.
With `CCCCCCCCCCCC(=O)O[C@H]1[C@H](O[C@@H]2[C@H]3OC(=O)CCCCCCCCC[C@H](CCCCC)O[C@@H]4O[C@H](C)[C@H](O)[C@H](O)[C@H]4O[C@H](O[C@H]2C)[C@@H]3O)O[C@@H](C)[C@H](O[C@@H]2O[C@@H](C)[C@H](OC(=O)CCCCC)[C@@H](O)[C@H]2O)[C@H]1O[C@@H]1O[C@@H](C)[C@H](O)[C@@H](O)[C@H]1O` [PESCAPREIN IV], the outcome in data set [1] and in data set [3] was inactive. Besides, the IC50 is over 10 µM in data set [5], 10.8 µM in data set [2] and over 10 µM in data set [6].
Turning to `CCCCCCCCCC(=O)O[C@H]1[C@H](O[C@@H]2[C@H]3OC(=O)CCCCCCCCC[C@H](CCCCC)O[C@@H]4O[C@H](C)[C@H](O)[C@H](O)[C@H]4O[C@H](O[C@H]2C)[C@@H]3O)O[C@@H](C)[C@H](O[C@@H]2O[C@@H](C)[C@H](OC(=O)C(C)C)[C@@H](OC(=O)/C=C/c3ccccc3)[C@H]2O)[C@H]1O[C@@H]1O[C@@H](C)[C@H](O)[C@@H](O)[C@H]1O` [PESCAPREIN XXVI], the outcome in data set [1] and in data set [3] was inactive. The IC50 in data set [2] was over 10 µM.
Consider `CCCCCCCCCCCC(=O)O[C@H]1[C@H](O[C@@H]2[C@H]3OC(=O)CCCCCCCCC[C@H](CCCCC)O[C@@H]4O[C@H](C)[C@H](O)[C@H](O)[C@H]4O[C@H](O[C@H]2C)[C@@H]3O)O[C@@H](C)[C@H](O[C@@H]2O[C@@H](C)[C@H](OC(=O)[C@@H](C)CC)[C@@H](OC(=O)/C=C/c3ccccc3)[C@H]2O)[C@H]1O[C@@H]1O[C@@H](C)[C@H](O)[C@@H](O)[C@H]1O` [PESCAPREIN XXI], for which the result in data set [1] and in data set [3] was inactive. For the same compound, in data set [2], the IC50 was over 10 µM.
For the compound `CCCCCCCCCCCCCCCCCCCCOC(=O)/C=C/c1ccc(O)cc1`, the result in data set [1] and in data set [3] was inactive.
Regarding `CCCCCCCCCCCC(=O)O[C@H]1[C@H](O[C@@H]2[C@H]3OC(=O)CCCCCCCCC[C@H](CCCCC)O[C@@H]4O[C@H](C)[C@H](O)[C@H](O)[C@H]4O[C@H](O[C@H]2C)[C@@H]3O)O[C@@H](C)[C@H](O[C@@H]2O[C@@H](C)[C@H](OC(=O)CCCCCCC)[C@@H](O)[C@H]2O)[C@H]1O[C@@H]1O[C@@H](C)[C@H](O)[C@@H](O)[C@H]1O`, the outcome in data set [7], in data set [1] and in data set [3] was inactive. Also, the IC50 in data set [2] was over 10 µM.
As to `CC(C)C[C@H](NC(=O)[C@H](Cc1ccccc1)NC(=O)c1cnccn1)B(O)O` [BORTEZOMIB], the result in data set [1] and in data set [3] was inactive. For the same compound, the IC50 in data set [5] is 0.0048 µM; in data set [2] it was 0.0045 µM; in data set [6], 0.0026 µM.
On to `CCCCCCCCCC(=O)O[C@H]1[C@H](O[C@@H]2[C@H]3OC(=O)CCCCCCCCC[C@H](CCCCC)O[C@@H]4O[C@H](C)[C@H](O)[C@H](O)[C@H]4O[C@H](O[C@H]2C)[C@@H]3O)O[C@@H](C)[C@H](O[C@@H]2O[C@@H](C)[C@H](OC(=O)[C@@H](C)CC)[C@@H](O)[C@H]2O)[C@H]1O[C@@H]1O[C@@H](C)[C@H](O)[C@@H](O)[C@H]1O` [STOLONIFERIN III], for which the outcome in data set [1] and in data set [3] was inactive. Moreover, the half-maximal inhibitory concentration (IC50) in data set [5] was over 10 µM; in data set [2], 7.7 µM; in data set [6], over 10 µM.
Take `CCCCCCCCCCCC(=O)O[C@H]1[C@H](O[C@@H]2[C@H]3OC(=O)CCCCCCCCC[C@H](CCCCC)O[C@@H]4O[C@H](C)[C@H](O)[C@H](O)[C@H]4O[C@H](O[C@H]2C)[C@@H]3O)O[C@@H](C)[C@H](O[C@@H]2O[C@@H](C)[C@H](OC(=O)C(C)C)[C@@H](OC(=O)/C=C/c3ccccc3)[C@H]2O)[C@H]1O[C@@H]1O[C@@H](C)[C@H](O)[C@@H](O)[C@H]1O` [PESCAPREIN XXV]: the result in data set [1] and in data set [3] was inactive. Moreover, the IC50 in data set [2] was over 10 µM.

For the origin of these results see ChEMBL document CHEMBL5038643, “Phytochemical Investigation of the Roots of Ipomoea asarifolia and Antiproliferative Activity of the Isolated Compounds against Multiple Myeloma Cells” (J Nat Prod, 2022).
